Here are results for 43 sequences from the supplement of paper PMC11208160.

This series can be described thus: recombinant barcode read abundance after kanamycin selection (control-corrected) (log10(CPM+1)); higher = more efficient recombination; sequences stand for … in AGTGCAGAGAAAATCGGCCAGTTTTCTCTGCCTGCAGTCCGCATGCCGT…ATTTATGCAGCGGACTGCCTTTCTCCCAAAGTGATAAACCGGACAGTATCATGGACCGGTTTTCCCGGTAATCCGTATTTGCAAGGTTGGTTTCACT; site = the 11-nt target. In a few lines: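 IS621 bridge RNA target-binding loops were paired with targets in a pooled library tested in E. coli. After co-electroporation with a donor plasmid, cells were plated in two replicates on chloramphenicol/ampicillin LB agar (control) and on chloramphenicol/ampicillin/kanamycin carrying 0.1 mM IPTG. Barcodes at recombinant junctions were counted as counts per million, averaged and control-corrected to give recombination efficiency. Values are log10(CPM+1).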
Turning to “GCGGGACGGTGGGTTCTAACCTGTTGCCTCC [GCGGGACCTAG_LTGcore_GG_RTGcore_GG] (site GCGGGACCTAG) (LTG core: GG, RTG core: GG)”, the “recombinant barcode read abundance (log10)” value worked out at 0.182.
For the sequence “GGACACCAGTGGGTTCTAACCTGTTGCCTAG [GGACACCCTAG_LTGcore_AG_RTGcore_CT] (site GGACACCCTAG) (LTG core: AG, RTG core: CT)”, the “recombinant barcode read abundance (log10)” value came out at 0.143.
The figure for “GGACACCAGTGGGTTCTAACCTGTTGCCTCT [GGACACCCTAG_LTGcore_AG_RTGcore_AG] (site GGACACCCTAG) (LTG core: AG, RTG core: AG)” is 0.0138; for “GGACACCCGTGGGTTCTAACCTGTTGCCTAG [GGACACCCTAG_LTGcore_CG_RTGcore_CT] (site GGACACCCTAG) (LTG core: CG, RTG core: CT)” it is 1.2.
For the sequence “GGACACCCTTGGGTTCTAACCTGTTGCCTAC [GGACACCCTAG_LTGcore_CT_RTGcore_GT] (site GGACACCCTAG) (LTG core: CT, RTG core: GT)”, the “recombinant barcode read abundance (log10)” value was found to be 1.33.
As for “GGACACCCTTGGGTTCTAACCTGTTGCCTAG [GGACACCCTAG_LTGcore_CT_RTGcore_CT] (site GGACACCCTAG) (LTG core: CT, RTG core: CT)”, the figure is 2.43.
The figure for “GGACACCCTTGGGTTCTAACCTGTTGCCTTC [GGACACCCTAG_LTGcore_CT_RTGcore_GA] (site GGACACCCTAG) (LTG core: CT, RTG core: GA)” is 0.732.
The figure for “GGACACCCTTGGGTTCTAACCTGTTGCCTTG [GGACACCCTAG_LTGcore_CT_RTGcore_CA] (site GGACACCCTAG) (LTG core: CT, RTG core: CA)” is 1.32; for “GGACACCTCTGGGTTCTAACCTGTTGCCTAG [GGACACCCTAG_LTGcore_TC_RTGcore_CT] (site GGACACCCTAG) (LTG core: TC, RTG core: CT)” it is 0.117; for “GGCTCCCATTGGGTTCTAACCTGTTGCGGAT [GGCTCCCCTCC_LTGcore_AT_RTGcore_AT] (site GGCTCCCCTCC) (LTG core: AT, RTG core: AT)” it is 0.138.
With “GGCTCCCCCTGGGTTCTAACCTGTTGCGGGG [GGCTCCCCTCC_LTGcore_CC_RTGcore_CC] (site GGCTCCCCTCC) (LTG core: CC, RTG core: CC)”, the “recombinant barcode read abundance (log10)” value stood at 0.0622.
Regarding “GGCTCCCCGTGGGTTCTAACCTGTTGCGGAG [GGCTCCCCTCC_LTGcore_CG_RTGcore_CT] (site GGCTCCCCTCC) (LTG core: CG, RTG core: CT)”, the “recombinant barcode read abundance (log10)” value was found to be 0.116.
With “GGCTCCCCGTGGGTTCTAACCTGTTGCGGCG [GGCTCCCCTCC_LTGcore_CG_RTGcore_CG] (site GGCTCCCCTCC) (LTG core: CG, RTG core: CG)”, the “recombinant barcode read abundance (log10)” value came to 0.0989.
The figure for “GGCTCCCCTTGGGTTCTAACCTGTTGCGGAG [GGCTCCCCTCC_LTGcore_CT_RTGcore_CT] (site GGCTCCCCTCC) (LTG core: CT, RTG core: CT)” is 0.248.
The figure for “GGCTCCCCTTGGGTTCTAACCTGTTGCGGCG [GGCTCCCCTCC_LTGcore_CT_RTGcore_CG] (site GGCTCCCCTCC) (LTG core: CT, RTG core: CG)” is 0.0875; for “GGCTCCCCTTGGGTTCTAACCTGTTGCGGGG [GGCTCCCCTCC_LTGcore_CT_RTGcore_CC] (site GGCTCCCCTCC) (LTG core: CT, RTG core: CC)” it is 0.0955; for “GGCTCCCCTTGGGTTCTAACCTGTTGCGGTT [GGCTCCCCTCC_LTGcore_CT_RTGcore_AA] (site GGCTCCCCTCC) (LTG core: CT, RTG core: AA)” it is 0.285.
As for “GGCTCCCGCTGGGTTCTAACCTGTTGCGGGC [GGCTCCCCTCC_LTGcore_GC_RTGcore_GC] (site GGCTCCCCTCC) (LTG core: GC, RTG core: GC)”, the figure is 0.0637.
Consider “GGCTCCCGTTGGGTTCTAACCTGTTGCGGAG [GGCTCCCCTCC_LTGcore_GT_RTGcore_CT] (site GGCTCCCCTCC) (LTG core: GT, RTG core: CT)”, for which the “recombinant barcode read abundance (log10)” value is 0.546.
The figure for “GGCTCCCTGTGGGTTCTAACCTGTTGCGGCA [GGCTCCCCTCC_LTGcore_TG_RTGcore_TG] (site GGCTCCCCTCC) (LTG core: TG, RTG core: TG)” is 0.234; for “GGGAGCCAATGGGTTCTAACCTGTTGCTGTT [GGGAGCCCTCA_LTGcore_AA_RTGcore_AA] (site GGGAGCCCTCA) (LTG core: AA, RTG core: AA)” it is 0.427; for “GGGAGCCCATGGGTTCTAACCTGTTGCTGAG [GGGAGCCCTCA_LTGcore_CA_RTGcore_CT] (site GGGAGCCCTCA) (LTG core: CA, RTG core: CT)” it is 1.06.
As for “GGGAGCCCTTGGGTTCTAACCTGTTGCTGAA [GGGAGCCCTCA_LTGcore_CT_RTGcore_TT] (site GGGAGCCCTCA) (LTG core: CT, RTG core: TT)”, the figure is 0.138; as for “GGGAGCCCTTGGGTTCTAACCTGTTGCTGAT [GGGAGCCCTCA_LTGcore_CT_RTGcore_AT] (site GGGAGCCCTCA) (LTG core: CT, RTG core: AT)”, 0.599; as for “GGGAGCCCTTGGGTTCTAACCTGTTGCTGCC [GGGAGCCCTCA_LTGcore_CT_RTGcore_GG] (site GGGAGCCCTCA) (LTG core: CT, RTG core: GG)”, 0.0726.
As for “GGGAGCCCTTGGGTTCTAACCTGTTGCTGTT [GGGAGCCCTCA_LTGcore_CT_RTGcore_AA] (site GGGAGCCCTCA) (LTG core: CT, RTG core: AA)”, the figure is 0.272; as for “GGGAGCCGCTGGGTTCTAACCTGTTGCTGAG [GGGAGCCCTCA_LTGcore_GC_RTGcore_CT] (site GGGAGCCCTCA) (LTG core: GC, RTG core: CT)”, 0.379; as for “GGGAGCCGGTGGGTTCTAACCTGTTGCTGAG [GGGAGCCCTCA_LTGcore_GG_RTGcore_CT] (site GGGAGCCCTCA) (LTG core: GG, RTG core: CT)”, 0.212.
“GGGAGCCGGTGGGTTCTAACCTGTTGCTGCC [GGGAGCCCTCA_LTGcore_GG_RTGcore_GG] (site GGGAGCCCTCA) (LTG core: GG, RTG core: GG)”: the “recombinant barcode read abundance (log10)” value was 0.0432.
The figure for “GGGCGGAAATGGGTTCTAACCTGTTGCGGTT [GGGCGGACTCC_LTGcore_AA_RTGcore_AA] (site GGGCGGACTCC) (LTG core: AA, RTG core: AA)” is 0.428; for “GGGCGGAATTGGGTTCTAACCTGTTGCGGAT [GGGCGGACTCC_LTGcore_AT_RTGcore_AT] (site GGGCGGACTCC) (LTG core: AT, RTG core: AT)” it is 0.0199; for “GGGCGGACATGGGTTCTAACCTGTTGCGGTG [GGGCGGACTCC_LTGcore_CA_RTGcore_CA] (site GGGCGGACTCC) (LTG core: CA, RTG core: CA)” it is 0.732.
As for “GGGCGGACGTGGGTTCTAACCTGTTGCGGCG [GGGCGGACTCC_LTGcore_CG_RTGcore_CG] (site GGGCGGACTCC) (LTG core: CG, RTG core: CG)”, the figure is 0.759; as for “GGGCGGACTTGGGTTCTAACCTGTTGCGGCT [GGGCGGACTCC_LTGcore_CT_RTGcore_AG] (site GGGCGGACTCC) (LTG core: CT, RTG core: AG)”, 0.292; as for “GGGCGGACTTGGGTTCTAACCTGTTGCGGTG [GGGCGGACTCC_LTGcore_CT_RTGcore_CA] (site GGGCGGACTCC) (LTG core: CT, RTG core: CA)”, 0.17.
In the case of “GGGCGGAGCTGGGTTCTAACCTGTTGCGGGC [GGGCGGACTCC_LTGcore_GC_RTGcore_GC] (site GGGCGGACTCC) (LTG core: GC, RTG core: GC)”, the “recombinant barcode read abundance (log10)” value was 0.417.
The figure for “GGGCGGAGTTGGGTTCTAACCTGTTGCGGAC [GGGCGGACTCC_LTGcore_GT_RTGcore_GT] (site GGGCGGACTCC) (LTG core: GT, RTG core: GT)” is 0.199; for “GGGCGGATGTGGGTTCTAACCTGTTGCGGAG [GGGCGGACTCC_LTGcore_TG_RTGcore_CT] (site GGGCGGACTCC) (LTG core: TG, RTG core: CT)” it is 0.251; for “GGGCGTGAATGGGTTCTAACCTGTTGCCTTT [GGGCGTGCTAG_LTGcore_AA_RTGcore_AA] (site GGGCGTGCTAG) (LTG core: AA, RTG core: AA)” it is 0.148.
The figure for “GGGCGTGCATGGGTTCTAACCTGTTGCCTTG [GGGCGTGCTAG_LTGcore_CA_RTGcore_CA] (site GGGCGTGCTAG) (LTG core: CA, RTG core: CA)” is 0.0757; for “GGGCGTGCTTGGGTTCTAACCTGTTGCCTCT [GGGCGTGCTAG_LTGcore_CT_RTGcore_AG] (site GGGCGTGCTAG) (LTG core: CT, RTG core: AG)” it is 0.831.
As for “GGGCGTGGGTGGGTTCTAACCTGTTGCCTCC [GGGCGTGCTAG_LTGcore_GG_RTGcore_GG] (site GGGCGTGCTAG) (LTG core: GG, RTG core: GG)”, the figure is 0.116; as for “GGGCGTGGTTGGGTTCTAACCTGTTGCCTAC [GGGCGTGCTAG_LTGcore_GT_RTGcore_GT] (site GGGCGTGCTAG) (LTG core: GT, RTG core: GT)”, 0.593.
